Experimental data published in paper PMC11374673, “Discovery of isoquinoline sulfonamides as allosteric gyrase inhibitors with activity against fluoroquinolone-resistant bacteria” (Nature Chemistry, 2024).
Values after ≈ are worked out from the molar mass of the structure shown. Read-outs that look alike come from different tables or passages of the source.

Columns and labels:
[1] = tested on: A. baumannii ATCC BAA747; assay: MIC by broth microdilution; format: cell-based; settings: Acinetobacter baumannii, ATCCBAA747; read-out: MIC A. baumannii ATCC BAA747
Procedure: (§1) MIC was determined by broth microdilution. Single-colony cultures were grown to exponential phase (OD600 of 0.5) aerobically at 37 °C. In case of strains from the Keio collection, 50 µg ml^−1 kanamycin was supplemented to the media to ascertain a homogeneous population. The bacterial suspensions were diluted 100-fold in CAMHB and 50 µl was added to a twofold serial dilution series of test compounds (50 µl per well) in polypropylene 96-well microtitre plates to reach a volume of 100 µl. The plates were sealed with breathable membranes and incubated overnight at 37 °C with constant shaking (600 r.p.m.). The MIC was determined as the lowest concentration at which no visible bacterial growth was observed as compared with the inoculum controls from the median of a minimum of triplicates.

[2] = tested on: S. aureus ATCC 29213 / ATCC BAA1717; assay: MIC by broth microdilution; format: cell-based; settings: Staphylococcus aureus
Procedure: as §1

[3] = tested on: P. aeruginosa ATCC 27853; assay: MIC by broth microdilution; format: cell-based; settings: Pseudomonas aeruginosa, ATCC27853; read-out: MIC P. aeruginosa ATCC 27853
Procedure: as §1

[4] = tested on: K. pneumoniae ATCC 29665; assay: MIC by broth microdilution; format: cell-based, Klebsiella pneumoniae; settings: Klebsiella pneumoniae, ATCC29665, read-out: MIC K. pneumoniae ATCC 29665
In short: (§2)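 Exponential-phase cultures (OD600 0.5, 37 °C aerobic), diluted 100-fold in CAMHB, were added to twofold compound dilution series. Keio strains grown with 50 µg ml^−1 kanamycin. Plates incubated overnight at 37 °C, shaking at 600 r.p.m.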

[5] = tested on: E. coli ATCC 25922; assay: MIC by broth microdilution; format: cell-based; settings: Escherichia coli, ATCC25922, read-out: MIC E. coli ATCC 25922
Procedure: as §1, with “r.p.m.).” for “r.p.m.). The MIC was determined as the lowest concentration at which no visible bacterial growth was observed as compared with the inoculum controls from the median of a minimum of triplicates.”

[6] = tested on: E. coli W3110; assay: MIC by broth microdilution; format: cell-based, Escherichia coli; settings: Escherichia coli, W3110, WT, broth microdilution; read-out: MIC E. coli W3110
In short: as §2

[7] = tested on: clinical isolates of E. coli; assay: MIC against clinical isolates and potentiation by 4 µM PMBN; format: cell-based, Escherichia coli; settings: for MIC: Escherichia coli
Procedure: as §1, with “r.p.m.).” for “r.p.m.). The MIC was determined as the lowest concentration at which no visible bacterial growth was observed as compared with the inoculum controls from the median of a minimum of triplicates.”

[8] = tested on: E. coli W3110 gyrA S97L, S83L, D87N; assay: MIC against CRISPR/Cas9 gyrA point mutants; format: cell-based, Escherichia coli; settings: for MIC: Escherichia coli
Procedure: as §1
Mutants of the DNA gyrase subunit A encoding gene (gyrA) were constructed following the protocol for gene editing via the CRISPR–Cas9 system. Strains and plasmids used are listed in Supplementary Table 15, and primers used can be found in Supplementary Table 16. The following mutations were created: S97L in E. coli W3110. Two common mutations in the gyrA gene that give resistance to fluoroquinolone antibiotics were created in E. coli W3110, namely S83L and D87N. To create the gyrA (S97L) mutants, the construct psgRNA-gyrA-M5 was assembled as follows: The 20-nt spacer sequence was introduced by PCR on pTargetF using primers gyrA_P11 and gyrA_P12, the homology-directed repair (HDR) arms were amplified from E. coli W3110 genomic DNA by PCR using primer pairs gyrA_P05 and gyrA_P013, and gyrA_P08 and gyrA_P14. The three PCR fragments generated were cloned into the SpeI and BglII digested pTargetF via Gibson assembly. To avoid off-target effects of CRISPR, besides desired point mutation for gyrA (S97L), four other silent point mutations were also included in the HDR template. Consequently, the amino acid sequence of gyrA will remain the same in the generated mutant except for the desired mutation. Similarly, constructs psgRNA-gyrA-S83L and psgRNA-gyrA-D87N were created to introduce mutations S83L and D87N in gyrA, respectively. In psgRNA-gyrA-S83L, spacer sequence was introduced using primers gyrA_P12 and gyrA_P17, HDR template was amplified using primer pairs gyrA_P05 and gyrA_P18, and gyrA_P08 and gyrA_P19. In psgRNA-gyrA-D87N, spacer sequence was introduced using primers gyrA_P12 and gyrA_P20, HDR template was amplified using primer pairs gyrA_P05 and gyrA_P21, and gyrA_P08 and gyrA_P22. The verified constructs for gyrA engineering were transformed into E. coli W3110 carrying pCas9, and plated in LB containing kanamycin (50 µg ml^−1) for the selection of the pCas9 plasmid and spectinomycin (100 µg ml^−1) for the selection of psgRNA-gyrA-X. The plates were incubated at 30 °C. Plasmids were cured by growing the strains with 0.5 mM isopropylthiogalactoside with no antibiotics to lose first the psgRNA-gyrA plasmids. After losing the spectinomycin resistance, the strain was grown in LB with no antibiotics at 42 °C to lose the pCas plasmid. Colony PCR was performed on plasmid-free colonies using primers gyrA_P9 and gyrA_P10, and PCR products were sequenced to confirm the desired mutation

[9] = tested on: E. coli BW25113 and single-gene knockouts; assay: MIC on E. coli strains of the Keio collection; format: cell-based, Escherichia coli; settings: for MIC: Escherichia coli
Procedure: as §1

Q: How did the MIC [1] turn out when `O=S(=O)(NC[C@@H]1CC[C@H](c2ccc(-c3cccnc3)cc2)N1)c1cccc2cnccc12` [LEI-800] was run?
A: The MIC was 25 µM (≈ 11.1 µg/mL).

Q: What about the MIC ([2]; read-out: MIC S. aureus ATCC 29213) of the same compound?
A: The MIC was greater than 50 µM.

Q: And the MIC ([2]; read-out: MIC S. aureus ATCC BAA1717)?
A: Its MIC is greater than 50 µM.

Q: What about the MIC [3] of the same compound?
A: The MIC was greater than 50 µM.

Q: And the MIC [4]?
A: The MIC was 6.25 µM (≈ 2.78 µg/mL).

Q: And the MIC [5]?
A: The MIC was 6.25 µM (≈ 2.78 µg/mL).

Q: And the MIC [6]?
A: The MIC was 3.1 µM (≈ 1.38 µg/mL).

Q: And the FC ([7]; E. coli 1075, fold change in MIC after 4 µM PMBN)?
A: The FC was greater than 4.

Q: What about the MSC ([7]; E. coli 1075, with 4 µM PMBN) of the same compound?
A: Its MSC is 12.5 µM.

Q: What about the FC ([7]; E. coli 552059.1, fold change in MIC after 4 µM PMBN) of the same compound?
A: The FC was 32.

Q: What about the MSC ([7]; E. coli 552059.1, with 4 µM PMBN) of the same compound?
A: Its MSC is 0.78 µM.

Q: What about the FC ([7]; E. coli 552060.1, fold change in MIC after 4 µM PMBN) of the same compound?
A: The FC was 16.

Q: And the MSC ([7]; E. coli 552060.1, with 4 µM PMBN)?
A: Its MSC is 1.5 µM.

Q: And the FC ([7]; E. coli MVAST0072, fold change in MIC after 4 µM PMBN)?
A: The FC was 16.

Q: And the MSC ([7]; E. coli MVAST0072, with 4 µM PMBN)?
A: The MSC was 1.5 µM.

Q: And the FC ([7]; E. coli NCTC13463, fold change in MIC after 4 µM PMBN)?
A: The FC was 8.

Q: And the MSC ([7]; E. coli NCTC13463, with 4 µM PMBN)?
A: Its MSC is 0.4 µM.

Q: And the FC ([7]; E. coli NCTC13846, fold change in MIC after 4 µM PMBN)?
A: The FC was 4.

Q: And the MSC ([7]; E. coli NCTC13846, with 4 µM PMBN)?
A: Its MSC is 12.5 µM.

Q: What about the FC ([7]; E. coli mcr-1, fold change in MIC after addition of 4 µM PMBN) of the same compound?
A: The FC was 4.

Q: And the MSC ([7]; E. coli mcr-1, with 4 µM PMBN)?
A: Its MSC is 6.25 µM.

Q: And the MIC ([7]; CIP-resistant isolate 965 (MDR))?
A: Its MIC is 12.5 µM.

Q: What about the MIC ([7]; CIP-resistant isolate 991, read-out: MIC) of the same compound?
A: The MIC was 25 µM.

Q: What about the MIC ([7]; CIP-resistant isolate 1022 (ESBL), read-out: MIC) of the same compound?
A: The MIC was 25 µM.

Q: What about the MIC ([7]; CIP-resistant isolate 1104 (MDR), read-out: MIC) of the same compound?
A: The MIC was 25 µM.

Q: What about the MIC ([7]; CIP-resistant isolate 1146 (MDR)) of the same compound?
A: The MIC was 6.25 µM.

Q: What about the MIC ([7]; CIP-resistant isolate 1175 (MDR), read-out: MIC) of the same compound?
A: Its MIC is 25 µM.

Q: What about the MIC ([7]; CIP-resistant isolate 1192 (MDR), read-out: MIC) of the same compound?
A: The MIC was 50 µM.

Q: And the MIC ([7]; CIP-resistant isolate 1201 (MDR))?
A: The MIC was 12.5 µM.

Q: And the MIC ([7]; CIP-resistant isolate 1233, read-out: MIC)?
A: The MIC was 12.5 µM.

Q: And the MIC ([7]; E. coli 1075 (MDR), read-out: MIC)?
A: Its MIC is greater than 50 µM.

Q: And the MIC ([7]; E. coli 552059.1, read-out: MIC)?
A: The MIC was 25 µM.

Q: And the MIC ([7]; E. coli 552060.1, read-out: MIC)?
A: The MIC was 25 µM.

Q: What about the MIC ([7]; E. coli MVAST0072 (MDR), read-out: MIC) of the same compound?
A: Its MIC is 25 µM.

Q: What about the MIC ([7]; NCTC13463, E. coli NCTC13463 (ESBL), read-out: MIC) of the same compound?
A: Its MIC is 3.1 µM.

Q: What about the MIC ([7]; NCTC13846, E. coli NCTC13846 (MDR, mcr-1)) of the same compound?
A: Its MIC is 50 µM.

Q: And the FC ([7]; isolate 965, fold-change in MIC)?
A: Its FC is 16.

Q: What about the MSC ([7]; isolate 965, with 4 μM PMBN) of the same compound?
A: The MSC was 0.8 µM.

Q: What about the FC ([7]; isolate 991, fold-change in MIC) of the same compound?
A: The FC was 8.

Q: And the MSC ([7]; isolate 991, with 4 μM PMBN)?
A: Its MSC is 3.1 µM.

Q: What about the FC ([7]; isolate 1022, fold-change in MIC) of the same compound?
A: Its FC is 16.

Q: And the MSC ([7]; isolate 1022, with 4 μM PMBN)?
A: The MSC was 1.6 µM.

Q: And the FC ([7]; isolate 1104, fold-change in MIC)?
A: The FC was 16.

Q: What about the MSC ([7]; isolate 1104, with 4 μM PMBN) of the same compound?
A: Its MSC is 1.6 µM.

Q: And the FC ([7]; isolate 1146, fold-change in MIC)?
A: The FC was 8.

Q: And the MSC ([7]; isolate 1146, with 4 μM PMBN)?
A: Its MSC is 0.8 µM.

Q: And the FC ([7]; isolate 1175, fold-change in MIC)?
A: The FC was 8.

Q: What about the MSC ([7]; isolate 1175, with 4 μM PMBN) of the same compound?
A: The MSC was 3.1 µM.

Q: And the FC ([7]; isolate 1192, fold-change in MIC)?
A: The FC was 16.

Q: And the MSC ([7]; isolate 1192, with 4 μM PMBN)?
A: The MSC was 3.1 µM.

Q: And the FC ([7]; isolate 1201, fold-change in MIC)?
A: The FC was 8.

Q: What about the MSC ([7]; isolate 1201, with 4 μM PMBN) of the same compound?
A: The MSC was 1.6 µM.

Q: What about the FC ([7]; isolate 1233, fold-change in MIC) of the same compound?
A: Its FC is 8.

Q: What about the MSC ([7]; isolate 1233, with 4 μM PMBN) of the same compound?
A: Its MSC is 1.6 µM.

Q: What about the “susceptibility of gyrA S83L / D87N mutants” value [8] of the same compound?
A: Its value is “did not affect the susceptibility”.

Q: What about the “susceptibility of gyrA S97L mutant” value ([8]; CRISPR–Cas9 S97L) of the same compound?
A: The value was “resistant”.

Q: And the MIC ([8]; E. coli W3110 gyrA D87N (FQ-resistant 2))?
A: Its MIC is 6.25 µM (≈ 2.78 µg/mL).

Q: What about the MIC ([8]; E. coli W3110 gyrA S83L (FQ-resistant 1)) of the same compound?
A: Its MIC is 6.25 µM (≈ 2.78 µg/mL).

Q: What about the MIC ([8]; E. coli W3110 gyrA S97L (LEI-800-resistant)) of the same compound?
A: The MIC was greater than 50 µM.

Q: What about the “potency against ΔtolC efflux pump mutant” value [9] of the same compound?
A: The value was “No increase in potency”.

Q: And the MIC ([9]; BW25113, JW3594 ΔrfaD)?
A: Its MIC is 0.4 µM (≈ 0.178 µg/mL).

Q: What about the MIC ([9]; BW25113, JW3596 ΔrfaC, LPS disruption (genetic)) of the same compound?
A: Its MIC is 0.4 µM (≈ 0.178 µg/mL).

Q: What about the MIC ([9]; BW25113, JW3600 ΔrfaY) of the same compound?
A: Its MIC is 1.6 µM (≈ 0.711 µg/mL).

Q: And the MIC ([9]; BW25113, JW3602 ΔrfaI)?
A: The MIC was 1.6 µM (≈ 0.711 µg/mL).

Q: And the MIC ([9]; BW25113, JW3605 ΔrfaP)?
A: The MIC was 0.4 µM (≈ 0.178 µg/mL).

Q: And the MIC ([9]; BW25113, JW5503 ΔTolC)?
A: Its MIC is 3.1 µM (≈ 1.38 µg/mL).

Q: And the MIC ([9]; BW25113, read-out: MIC E. coli BW25113, parent strain)?
A: Its MIC is 3.1 µM (≈ 1.38 µg/mL).
